Values of other authors, collected in paper PMC5051147, “Ester Hydrolysis Differentially Reduces Aconitine-Induced Anti-hypersensitivity and Acute Neurotoxicity: Involvement of Spinal Microglial Dynorphin Expression and Implications for Aconitum Processing” (Frontiers in Pharmacology, 2016).

Experiments:
[1] = test system: mice; parameters: method as in Zheng et al., 1994; conditions: subcutaneous, ref Zheng et al., 1994; cited from earlier work
[2] = parameters: method as in Zheng et al., 1994; conditions: intracerebroventricular injection; ref Zheng et al., 1994; cited from earlier work
[3] = test system: rats; parameters: method as in Zheng et al., 1994; conditions: subcutaneous, ref Zheng et al., 1994; cited from earlier work
[4] = test system: acetic acid and formalin tests; parameters: method as in Yu et al., 1996; conditions: systemic; ref Yu et al., 1996; cited from earlier work

SMILES	ED50 relative to 3-acetylaconitine (times greater) [1]	Therapeutic index relative to 3-acetylaconitine [2]	ED50 relative to 3-acetylaconitine (times greater) [3]	Antinociception compared with analogues [4]
CCN1C[C@]2(COC)[C@H](OC(C)=O)C[C@H](OC)C34C1C([C@H](OC)[C@@H]32)[C@]1(O)[C@@H]2[C@H]4C[C@@](O)([C@@H]2OC(=O)c2ccccc2)[C@@H](OC)[C@@H]1OC(C)=O [3,15-diacetylbenzoylaconine]	12–16 times	three-fold higher	25–30 times	–
CCN1C[C@]2(COC)[C@H](O)C[C@H](OC)[C@]34C1[C@H]([C@H](OC)[C@H]23)[C@@]1(OC(C)=O)C[C@H](OC)[C@@]2(O)C[C@@H]4[C@@H]1[C@H]2OC(=O)c1ccc(OC)cc1 [yunaconitine]	–	–	–	greater antinociception than bulleyaconitine A and 3-acetylaconitine
